These are literature values, as cited in patent US7598403B2, “Synthesis of chromanones” (priority 2003, dated 2009).

The series concerns day-old broiler chicks. As to conditions: administered to day-old broiler chicks (Lee et al., 1985).

Molecules are shown by their SMILES.

For `CC1(C)CC(=O)c2c(ccc(C(=O)CC(N)CO)c2N)O1` (racemic) [FC101, 5-amino-2,2-dimethyl-6-[3′-(R,S)amino-4′-hydroxy-butan-1-one]-2,3-dihydro-4H-1-benzopyran-4-one], the “induction of Avian Tibial Dyschondroplasia (ATD)” value is reported as “cause ATD”.
